From patent EP0000644A2, “Lower cycloalkyl substituted-benzene derivatives, the preparation thereof and their pharmaceutical compositions” (FUJISAWA PHARMACEUTICAL CO., LTD., priority 1977, dated 1979) come the findings set out here.

Values after ≈ are worked out from the molar mass of the structure shown. Where a name gives a salt, the structure may show the parent alone. Read-outs that look alike come from different tables or passages of the source.

For one test, the system named is erythema. Description: Ultra-violet erythema test, oral administration. The format is in vivo, Hartley rats. The note with it: ten animals per group; oral suspension, half one hour before and half just after ultra-violet radiation; erythema scored two hours later; effective when total of 3 points below 1.5; read-out: Score. The procedure:
Ten male 5 week old Hartley rats, each weighing about 350 g., were used per group. The backs of each animal were depilated 24 hours before the test. An adhesive tape with 3 small holes of 9 mm. diameter was placed on the depilated skin and then the animal was exposed to ultra-violet radiation from an ultra-violet lamp (500 W, manufactured by Engelhard Hanovia Inc.) at a distance of 13 cm. for 80 seconds. Two hours later, the degree of erythema was estimated on the basis of the following scores: • 1.0 : eryhthema with clear border, • 0.5 : erythema with unclear border, • 0.0 : scarcely any erythema.
The valuation was determined as follows:
Each dosage of the test compound was administered orally in a suspension form in 20 ml. of 0.5% aqueous methyl cellosolve aqueous solution. Half of the test sample was administered one hour before the radiation and the remaining half of the test solution was administered just after radiation.

The test system of a further test is strip of stomach fundus. The test is described as follows: Contraction of isolated stomach fundus strip induced by arachidonic acid. The format is cell-based, Sprague-Dawley rats. The note with it: Rattus norvegicus, 0.25 h. As for the experimental part: The stomach was removed from Sprague-Dawley rats, weighing about 180 g., after the animals were fasted overnight. A strip of stomach fundus was suspended under initial tension of 0.6 g. in a 10 ml. organ bath containing Tyrode solution. Arachidonic acid (1.0 x 10^-5 g/ml.) was employed as the spasmogen. Several doses of the test compound were added to the individnal bath fluid 15 minutes before the addition of arachidonic acid. The value of contraction induced by arachidonic acid was measured and plotted as a dose-activity curve. The ED50 value of each test compound was obtained by interpolation from the dose-activity curve.

[1] abbreviates: arachidonic acid 1.0 x 10^-5 g/ml. as spasmogen, test compound added 15 minutes before, interpolated from dose-activity curve, read-out: ED50 (the source's name).

For `COCC(CO)c1ccc(C2CCCCC2)c(Cl)c1` (centres unmarked) [Example 23, 2-(3-chloro-4-cyclohexylphenyl)-3-methoxypropanol], the minimal effective dose in the test with erythema was 8 to 10 mg/kg.

Consider `COCC(COC(=O)COc1ccc(Cl)cc1)c1ccc(C2CCCCC2)cc1` (centres unmarked) [Example 20, 1-(4-chlorophenoxyacetoxy)-2-(4-cyclohexylphenyl)-3-methoxypropane], for which the minimal effective dose with erythema lay in the range of 8 to 10 mg/kg.

With `CC(=O)CC(C(=O)O)c1ccc(C2CCCCC2)c(Cl)c1` (centres unmarked) [24-(2), 2-(3-chloro-4-cyclohexylphenyl)-3-acetylpropionic acid], the minimal effective dose in the test on erythema lay within 8 to 10 mg/kg. Further, in the test on strip of stomach fundus (setting [1]), the IC50 worked out at 4.2 µg/mL (≈ 13.6 µM).

Consider `O=C(O)C(CO)c1ccc(C2CCCCC2)cc1` (centres unmarked) [Example 2, p-cyclohexyltropic acid], for which the minimal effective dose in the test with erythema is 8 to 10 mg/kg. For the same compound, the IC50 with strip of stomach fundus (setting [1]) was determined as 2.6 µg/mL (≈ 10.5 µM).

For `COC(=O)C(COC(C)=O)c1ccc(C2CCCCC2)c(Cl)c1` (centres unmarked) [5-(3), methyl 3-acetoxy-2-(3-chloro-4-cyclohexylphenyl) propionate], the minimal effective dose with erythema lay within 8 to 10 mg/kg. Moreover, the IC50 with strip of stomach fundus (setting [1]) amounted to 0.12 µg/mL (≈ 0.354 µM).

On to `CC(=O)Oc1ccccc1C(=O)O` [aspirin, reference compound], for which the IC50 with strip of stomach fundus (read-out: ED50) came to 3.1 µg/mL (≈ 17.2 µM).

As to `CS(=O)(=O)NCC(CO)c1ccc(C2CCCCC2)cc1` (centres unmarked) [14-(3), 2-(4-cyclohexylphenyl)-3-mesylaminopropanol], the minimal effective dose in the test on erythema was 8 to 10 mg/kg. For the same compound, in the test with strip of stomach fundus (setting [1]), the IC50 was determined as 22 µg/mL (≈ 70.6 µM).

With `CNCC(CO)c1ccc(C2CCCCC2)cc1` (centres unmarked) [21-(2), 2-(4-cyclohcxylphenyl)-3-mcthylaminopropanol hydrochloride], the minimal effective dose with erythema lay within 8 to 10 mg/kg.

Take `COCC(C(=O)O)c1ccc(C2CCCCC2)c(Cl)c1` (centres unmarked) [4-(3), sodium 2-(3-chloro-4-cyclohexylphenyl)-3-methoxypropionatc]: the minimal effective dose with erythema fell in the range of 8 to 10 mg/kg. In the test on strip of stomach fundus (setting [1]), the IC50 worked out at 0.084 µg/mL.

In the case of `COCC(CO)c1ccc(C2CCCCC2)c(Cl)c1` (centres unmarked) [7-(2), 2-(3-chloro-4-cyclohexylphenyl)-3-methoxypropanol], the IC50 in the test with strip of stomach fundus (setting [1]) came out at 0.5 µg/mL (≈ 1.77 µM).

For the compound `CC(=O)CC(CO)c1ccc(C2CCCCC2)cc1` (centres unmarked) [16-(3), 2-(4-cyclohexylphenyl)-3-acetylpropanol], the minimal effective dose with erythema was in the range of 8 to 10 mg/kg.

Consider `CC(=O)OCC(COC(C)=O)c1ccc(C2CCCCC2)c(Cl)c1` [Example 8, 1,3-diacetoxy-2-(3-chloro-4-cyclohexylphenyl)propane], for which, in the test on erythema, the minimal effective dose was 8 to 10 mg/kg.

Turning to `CCCOCC(C(=O)[O-])c1ccc(C2CCCCC2)cc1.[Na+]` (centres unmarked) [12-(2), sodium 2-(4-cyclohexylphenyl)-3-propoxypropionate], the minimal effective dose with erythema was in the range of 8 to 10 mg/kg. In the test with strip of stomach fundus (read-out: ED50), the IC50 came out at 2.6 µg/mL.

Take `CC(=O)CC(C(=O)O)c1ccc(C2CCCCC2)cc1` (centres unmarked) [15-(2), 2-(4-cyclohexylphenyl)-3-acetylpropionic acid]: the minimal effective dose in the test on erythema lay in the range of 8 to 10 mg/kg. Besides, the IC50 in the test with strip of stomach fundus (setting [1]) was found to be 3.2 µg/mL (≈ 11.7 µM).

Turning to `CNCC(C(=O)O)c1ccc(C2CCCCC2)cc1` (centres unmarked) [Example 22, sodium 2-(4-cyclohexylphenyl)-3-methylaminopropionate monohydrate], the minimal effective dose in the test with erythema lay in the range of 8 to 10 mg/kg.

As for `COC(=O)C(CN1CCCCC1)c1ccc(C2CCCCC2)c(Cl)c1` (centres unmarked) [Example 11, methyl 2-(3-chloro-4-cyclohexylphcnyl)-3-piperidinopropionate hydrochloride], in the test on erythema, the minimal effective dose lay in the range of 8 to 10 mg/kg.

In the case of `OCC(CO)c1ccc(C2CCCCC2)c(Cl)c1` [Example 7-(1), 2-(3-chloro-4-cyclohexylphenyl)propane-1,3-diol], in the test with erythema, the minimal effective dose lay within 8 to 10 mg/kg. Further, the IC50 in the test with strip of stomach fundus (setting [1]) is 1.2 µg/mL (≈ 4.46 µM).

As to `O=C(O)C(CO)c1ccc(C2CCCCC2)c(Cl)c1` (centres unmarked) [Example 9, m-chloro-p-cyclohexyl tropic acid], the minimal effective dose with erythema is 8 to 10 mg/kg. In addition, the IC50 with strip of stomach fundus (setting [1]) came out at 0.26 µg/mL (≈ 0.919 µM).

For the compound `COCC(C(=O)O)c1ccc(C2CCCCC2)cc1` (centres unmarked) [17-(2), 2-(4 cyclohexylphenyl)-3-methoxypropionic acid], the minimal effective dose in the test with erythema fell in the range of 8 to 10 mg/kg. The IC50 with strip of stomach fundus (setting [1]) amounted to 1.3 µg/mL (≈ 4.96 µM).
